According to patent US9067894B1, “Compound, composition, and method of activating GIRK potassium channel and use of same for treating conditions of interest” (Vanderbilt University, priority 2013, dated 2015):
“Also recorded” adds a separate entry of the source.

Columns and labels:
[1] = molecular target: T1, Glutamate (NMDA, glycine) (Rattus norvegicus, UniProt P35439); experiment: Radioligand displacement (Ricerca); assay type: binding
T1 construct: Ricerca

Glutamate (kainate) = experiment: Radioligand displacement (Ricerca); assay type: binding, rat; details: 10 μM
[2] = Pentylenetetrazol (PTZ)-induced seizure model; assay type: in vivo, mouse; details: mice, i.p.; VU0456810 60 mg/kg, sodium valproate 150 mg/kg; PTZ 40 mg/kg; 20 minute timeframe
Procedure: After thirty minutes, PTZ was administered intraperitoneally (i.p., 40 mg/kg). Immediately following administration of PTZ, the amount of time elapsed before the first occurrence of tremors, tonic-clonic seizures, convulsion, and death was recorded. All mice were subject to a 20-minute post-[…] cutoff.
In all cases, experiments were conducted in a blind manner with respect to the experimenters. Data were evaluated in Excel using one-tailed, unpaired Student's t-test, assuming populations with unequal variance.

[3] = Home cage locomotor activity (SmartCage); assay type: in vivo, mouse; details: mice, 60 mg/kg i.p., 24 hours after injection
Procedure: The SmartCageTM system ([…], Inc., Burlingame, Calif.) was used to assess compound effects on spontaneous homecage activity. Automated data analysis was performed using CageScoreTM software ([…], Inc.). The home cage activity was determined by beam breaks (x, y, and z photo-beam break counts). Distance traveled in centimeters was obtained from the lower horizontal sensors (x and y) taking into account the path taken. Average velocity was distance traveled/second in the forward direction, averaged over the block time (bin). Mice (male C57/BL6, 8-10 months old, approximately 30 g) mice were assessed continuously for 72 hours. The first 24 hours was used as a habituation period. The locomotion data obtained from the second 24 hours served as the baseline data for each mouse. […] After receiving their respective treatments, each mouse's locomotor activity was monitored over the 24 hours to assess recovery from drug effects.

Glucocorticoid = molecular target: T2, Glucocorticoid (Homo sapiens, UniProt P04150); experiment: Radioligand displacement (Ricerca); assay type: binding
T2 construct: Ricerca
T2 sequence (P04150 whole entry): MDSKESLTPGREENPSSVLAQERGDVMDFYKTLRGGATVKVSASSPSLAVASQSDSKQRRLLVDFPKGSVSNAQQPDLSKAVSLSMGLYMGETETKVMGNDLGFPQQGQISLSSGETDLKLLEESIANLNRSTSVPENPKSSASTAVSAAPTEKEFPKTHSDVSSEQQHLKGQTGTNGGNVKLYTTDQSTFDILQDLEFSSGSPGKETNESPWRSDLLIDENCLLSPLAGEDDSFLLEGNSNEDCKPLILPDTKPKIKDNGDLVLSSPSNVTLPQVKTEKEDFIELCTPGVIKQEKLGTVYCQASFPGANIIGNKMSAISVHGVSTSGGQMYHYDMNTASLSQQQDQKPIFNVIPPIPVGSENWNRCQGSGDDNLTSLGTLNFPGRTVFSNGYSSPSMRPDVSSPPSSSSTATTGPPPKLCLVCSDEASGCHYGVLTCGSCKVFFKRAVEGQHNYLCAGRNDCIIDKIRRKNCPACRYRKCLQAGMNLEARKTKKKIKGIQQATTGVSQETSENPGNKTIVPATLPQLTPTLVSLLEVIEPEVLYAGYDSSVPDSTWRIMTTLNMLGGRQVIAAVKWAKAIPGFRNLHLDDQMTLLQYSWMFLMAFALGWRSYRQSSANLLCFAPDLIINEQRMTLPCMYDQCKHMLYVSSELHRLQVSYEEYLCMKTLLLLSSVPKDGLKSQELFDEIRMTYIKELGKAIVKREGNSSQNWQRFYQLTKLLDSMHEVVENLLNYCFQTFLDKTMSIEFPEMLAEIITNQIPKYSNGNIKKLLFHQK

Adrenergic α2A = molecular target: T3, Adrenergic α2A (Homo sapiens, UniProt P08913); experiment: Radioligand displacement (Ricerca); assay type: binding
T3 construct: Ricerca (contract assay)
T3 sequence (P08913 whole entry): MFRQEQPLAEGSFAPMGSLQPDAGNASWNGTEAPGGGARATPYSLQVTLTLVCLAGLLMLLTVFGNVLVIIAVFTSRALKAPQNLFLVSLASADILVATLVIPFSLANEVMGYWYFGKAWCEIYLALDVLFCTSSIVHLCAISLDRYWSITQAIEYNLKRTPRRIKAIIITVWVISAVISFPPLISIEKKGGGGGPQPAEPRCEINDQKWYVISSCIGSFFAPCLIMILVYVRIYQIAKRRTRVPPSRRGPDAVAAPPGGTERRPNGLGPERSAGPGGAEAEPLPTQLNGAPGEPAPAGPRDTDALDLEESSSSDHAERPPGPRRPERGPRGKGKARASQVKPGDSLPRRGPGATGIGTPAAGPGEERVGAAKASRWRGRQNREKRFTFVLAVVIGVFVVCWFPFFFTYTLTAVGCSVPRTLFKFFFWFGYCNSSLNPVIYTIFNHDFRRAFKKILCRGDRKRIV

Estrogen ERα = molecular target: T4, Estrogen ERα (Homo sapiens, UniProt P03372); experiment: Radioligand displacement (Ricerca); assay type: binding
T4 construct: Ricerca
T4 sequence (P03372 whole entry): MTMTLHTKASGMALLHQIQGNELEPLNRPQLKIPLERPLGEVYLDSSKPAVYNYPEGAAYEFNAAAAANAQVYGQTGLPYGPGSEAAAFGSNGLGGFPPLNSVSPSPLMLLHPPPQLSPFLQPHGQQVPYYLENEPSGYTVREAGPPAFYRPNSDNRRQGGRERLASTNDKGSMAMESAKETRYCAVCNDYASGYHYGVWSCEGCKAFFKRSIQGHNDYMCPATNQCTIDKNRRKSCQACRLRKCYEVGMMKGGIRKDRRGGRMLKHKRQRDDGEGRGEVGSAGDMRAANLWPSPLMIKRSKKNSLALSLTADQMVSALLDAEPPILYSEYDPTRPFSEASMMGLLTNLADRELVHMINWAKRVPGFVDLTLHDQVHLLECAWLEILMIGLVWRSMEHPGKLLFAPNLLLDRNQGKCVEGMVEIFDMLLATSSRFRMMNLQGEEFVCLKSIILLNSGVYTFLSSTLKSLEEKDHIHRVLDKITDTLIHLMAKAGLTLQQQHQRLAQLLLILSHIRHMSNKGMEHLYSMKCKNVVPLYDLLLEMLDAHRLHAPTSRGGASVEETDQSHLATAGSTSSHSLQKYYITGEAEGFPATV

For `Cc1cc(NC(=O)Nc2ccc(F)c(F)c2)n(-c2ccccc2)n1` [VU0456810, 1-(3,4-difluorophenyl)-3-(3-methyl-1-phenyl-1H-pyrazol-5-yl)urea], which inhibition at 10 µM [1] is on record?
The inhibition at 10 µM was -25%.

What about the “% Inhibition” value (Glutamate (kainate)) of the same molecule?
The value was 1%.

What about the “animals experiencing convulsions from PTZ treatment” value [2] of the same molecule?
The value was 5 out of 8 animals did not experience convulsions and significant decrease.

What about the “animals surviving PTZ treatment” value [2] of the same molecule?
Its value is 6 out of 8 animals survived and significant increase.

What about the “locomotor activity in home cage vs vehicle” value [3] of the same molecule?
Its value is “overall decrease in locomotor activity; also recorded: decreased”.

What about the inhibition at 10 µM (Glucocorticoid) of the same molecule?
The inhibition at 10 µM was 2%.

What about the inhibition at 10 µM (Adrenergic α2A) of the same molecule?
Its inhibition at 10 µM is 4%.

What about the inhibition at 10 µM (Estrogen ERα) of the same molecule?
The inhibition at 10 µM was 1%.
